Reference: paper PMC10970644, “Molecular Pharmacology of Gelsemium Alkaloids on Inhibitory Receptors” (International Journal of Molecular Sciences, 2024)

How the values were obtained:
[1] = biological target: T1, α3 GlyR (Rattus norvegicus, UniProt P24524); experiment: cell-based; type: cell-based
T1 construct: expressed in transfected cells; host or cells: HEK293 (ATCC CRL-1573)
T1 sequence (P24524 34-464): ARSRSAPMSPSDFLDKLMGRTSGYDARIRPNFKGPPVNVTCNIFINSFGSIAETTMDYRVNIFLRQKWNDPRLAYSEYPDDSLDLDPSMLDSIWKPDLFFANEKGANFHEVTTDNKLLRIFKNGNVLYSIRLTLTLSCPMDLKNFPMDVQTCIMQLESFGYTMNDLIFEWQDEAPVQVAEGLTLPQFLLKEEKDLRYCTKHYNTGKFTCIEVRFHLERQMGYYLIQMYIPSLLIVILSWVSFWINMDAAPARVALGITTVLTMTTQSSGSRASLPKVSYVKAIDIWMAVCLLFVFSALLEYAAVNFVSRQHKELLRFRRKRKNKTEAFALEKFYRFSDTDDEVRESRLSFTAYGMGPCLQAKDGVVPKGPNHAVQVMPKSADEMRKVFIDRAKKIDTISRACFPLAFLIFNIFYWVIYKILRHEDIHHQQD
Description: (§1) The cells were transfected with plasmids encoding the following proteins: (i). rat GlyR α (1, 2, 3) subunits alone or combined with rat β subunits (Uniprot Accession Numbers: Q546L7, P22771, P20236, P20781); and (ii). rat GABAAR α1 combined with rat β2 and γ2 subunits (Uniprot Accession Numbers: P62813, P63138, P18508). The EGFP expression was used as a marker of successful protein expression. The transfection was performed using Lipofectamine 2000 (Invitrogen, ThermoFisher, Carlsbad, CA, USA) using the fabricant protocol. The plasmids used to express GlyRs and GABAARs have been previously described. To track the successful expression of GlyR β subunits and the GABAA γ2 or β2 subunit, these proteins were subcloned in the pIRES2-EGFP vector. The transfection ratio to obtain β-containing GlyRs was 1:5 of α:β, while the expression of γ2-containing GABAA receptors was 1:2:5 of α:β:γ2 [14, 15]. Chimeric GlyRs were described in a previous report. Site directed mutagenesis was performed by Charm Gene Science Mutagenex LLC. (Cumming, GA, USA). All the constructs were checked by full-length sequencing (SNPSaurus, Eugene, OR, USA).
(§2) In brief, patch electrodes (3–4 MΩ) were pulled from borosilicate glasses in a PC-100 puller (Narishige, Tokyo, Japan); then, they were filled with an intracellular solution, which contained (in mM) 120 CsCl, 8 EGTA, 10 HEPES (pH 7.4), 4 MgCl2, 0.5 GTP, and 2 ATP. The extracellular solution contained (in mM) 140 NaCl, 5.4 KCl, 2.0 CaCl2, 1.0 MgCl2, 10 HEPES (pH 7.4), and 10 glucose. Whole-cell patch-clamp recordings were performed at −60 mV with an Axoclamp 200B (Molecular Devices, Sunnyvale, CA, USA) or with HEKA EPC-10 (HEKA Elektronik GmbH, Reutlingen, Germany) amplifiers. […] Brief (3–5 s) pulses of agonist together with alkaloids were applied to cells. Stock solutions of the alkaloids were prepared in high purity distilled water. Aliquots of these stock solutions were diluted in reservoirs containing extracellular solution. […] The concentration–response curve parameters for the alkaloid inhibition (IC50, nH, and the maximal current inhibition) were obtained from the fitted curve of normalized concentration–response data points to the equation Iagonist = Imax (agonist)nH/((agonist)nH + (EC50)nH). The IC50 curves are best-fit mean ± SE from pooled data. […] The inhibition constant (Ki) was calculated using the Cheng–Prusoff equation (Ki = IC50/((2 + ([Agonist]/EC50)^nH)^1/nH − 1). The concentration of agonist corresponds to the sub-saturating agonist concentration used to obtain the IC50 for each alkaloid on a given GlyR subtype.

[2] = biological target: T2, α2β GlyR (Rattus norvegicus, UniProt P20781+P22771); experiment: cell-based; type: cell-based
T2 construct: The cells were transfected with plasmids encoding the following proteins; expressed in transfected cells; host or cells: HEK293 (ATCC CRL-1573)
T2 sequence (P20781 23-496, one chain of several): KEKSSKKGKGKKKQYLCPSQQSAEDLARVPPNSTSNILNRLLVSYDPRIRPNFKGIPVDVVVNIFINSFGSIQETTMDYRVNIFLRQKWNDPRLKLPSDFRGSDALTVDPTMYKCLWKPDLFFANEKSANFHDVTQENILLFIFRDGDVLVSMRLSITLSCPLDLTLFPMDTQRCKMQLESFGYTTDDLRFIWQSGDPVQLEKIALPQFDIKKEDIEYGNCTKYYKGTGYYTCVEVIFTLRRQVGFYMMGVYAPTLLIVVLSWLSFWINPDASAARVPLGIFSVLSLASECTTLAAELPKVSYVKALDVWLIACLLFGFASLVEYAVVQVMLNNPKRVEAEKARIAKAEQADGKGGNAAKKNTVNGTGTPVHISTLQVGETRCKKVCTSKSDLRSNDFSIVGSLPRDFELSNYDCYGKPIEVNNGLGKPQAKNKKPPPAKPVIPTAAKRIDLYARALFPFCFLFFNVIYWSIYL
Description: as §1, §2

[3] = biological target: T3, α2 GlyR (Rattus norvegicus, UniProt P22771); experiment: cell-based; type: cell-based
T3 construct: The cells were transfected with plasmids encoding the following proteins; expressed in transfected cells; host or cells: HEK293 (ATCC CRL-1573)
T3 sequence (P22771 28-452): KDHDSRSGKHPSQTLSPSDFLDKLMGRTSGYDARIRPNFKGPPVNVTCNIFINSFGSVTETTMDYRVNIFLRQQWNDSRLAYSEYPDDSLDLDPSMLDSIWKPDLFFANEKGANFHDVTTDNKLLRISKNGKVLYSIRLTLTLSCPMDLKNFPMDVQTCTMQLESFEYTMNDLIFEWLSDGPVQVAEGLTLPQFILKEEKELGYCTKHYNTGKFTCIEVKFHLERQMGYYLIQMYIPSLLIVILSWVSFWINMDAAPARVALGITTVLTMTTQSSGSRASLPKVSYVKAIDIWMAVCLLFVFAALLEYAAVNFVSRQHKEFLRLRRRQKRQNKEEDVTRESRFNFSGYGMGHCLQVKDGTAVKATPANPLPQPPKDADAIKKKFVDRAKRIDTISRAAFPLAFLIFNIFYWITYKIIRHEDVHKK
Description: as §1, §2

[4] = biological target: T4, α1 GlyR (Rattus norvegicus, UniProt P07727); experiment: cell-based; type: cell-based
T4 construct: expressed in transfected cells; host or cells: HEK293 (ATCC CRL-1573)
T4 sequence (P07727 29-457): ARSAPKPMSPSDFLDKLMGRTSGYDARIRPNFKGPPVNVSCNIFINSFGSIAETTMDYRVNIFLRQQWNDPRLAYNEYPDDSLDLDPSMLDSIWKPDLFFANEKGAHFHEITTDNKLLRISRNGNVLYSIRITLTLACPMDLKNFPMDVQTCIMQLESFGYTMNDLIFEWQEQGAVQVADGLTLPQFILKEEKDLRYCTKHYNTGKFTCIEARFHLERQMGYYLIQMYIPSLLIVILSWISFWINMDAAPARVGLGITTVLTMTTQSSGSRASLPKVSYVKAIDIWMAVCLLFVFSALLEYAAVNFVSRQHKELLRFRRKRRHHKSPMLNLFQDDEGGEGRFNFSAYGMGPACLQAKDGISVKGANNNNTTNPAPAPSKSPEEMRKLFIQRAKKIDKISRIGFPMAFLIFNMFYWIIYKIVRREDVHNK
Description: as §1, §2

[5] = in vivo studies; cited from earlier work
[6] = Hill coefficient of inhibition curve
[7] = calculated using the Cheng–Prussof equation
[8] = percentage change of glycine-evoked current

Structure (SMILES)	EC50 ([1]; read-out: EC50 of agonist) [µM]	EC50 ([2]; read-out: EC50 of agonist) [µM]	EC50 ([3]; read-out: EC50 of agonist) [µM]	IC50 [1] [µM]	nH [1, 6]	Ki [1, 7] [µM]	Maximal Modulation [1, 8] [%]	IC50 [2] [µM]	nH [2, 6]	Ki [2, 7] [µM]	IC50 [4] [µM]	nH [4, 6]	Ki [4, 7] [µM]	Maximal Modulation [4, 8] [%]	IC50 [3] [µM]	nH [3, 6]	Ki [3, 7] [µM]	LD50 [5]	effect on glycine-evoked currents (in words) ([4]; wild-type, 10 μM gelsemine, 35 μM glycine)	effect on glycine-evoked currents (in words) ([3]; wild-type, 50 μM gelsemine, 60 μM glycine)
NCC(=O)O [glycine, reference compound]	150 ± 10	105 ± 9	91 ± 6	–	–	–	–	–	–	–	–	–	–	–	–	–	–	–	–	–
C=C[C@@]12CN(C)[C@H]3C[C@]14C(=Nc1ccccc14)[C@H]1C[C@@H]2[C@@H]3CO1 [koumine]	–	–	–	15.8 ± 4.6	0.9 ± 0.2	33.9 ± 15.8	−87.3 ± 4.0	23.6 ± 8.3	1.3 ± 0.6	57.4 ± 4	31.5 ± 1.7	1.7 ± 0.1	53.1 ± 17.1	−95.0 ± 1.5	11.2 ± 2.1	1.0 ± 0.2	44.2 ± 4.6	higher than 50 mg/kg	–	–
C=C[C@]12CN(C)[C@@H]3[C@H]4CO[C@H](C[C@H]41)[C@]1(C(=O)Nc4ccccc41)[C@@H]32 [gelsemine]	–	–	–	–	–	–	–	–	–	–	–	–	–	–	–	–	–	higher than 50 mg/kg	potentiated	inhibited
